From the supplement of paper PMC10920090 come the findings set out here.

Each structure is given as a SMILES string.

Common to all, as to details: 72 h
Test [1] has as its system BT-474. In words: drug sensitivity score (DSS), cell viability CellTiter-Glo; higher = more sensitive; extreme values may be limits of the assay. As for the experimental part: (§1)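 Targeted FIMM drug screen of 23 compounds at 5 concentrations over a 10,000-fold range in 384-well plates, 1250 cells/well, 72 h at 37 °C. Read-outs were CellTiter-Glo viability and CellTox Green cytotoxicity, normalised to DMSO and benzethonium chloride controls and summarised as drug sensitivity score (DSS). Cells stably transduced with shScramble or one of two shPPFIA1 constructs (shPPFIA1_1 TRCN0000002969, shPPFIA1_2 TRCN0000342514).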
A general note: In ATP-based viability assays light output follows the ATP content of the culture.

Test [2] deals with UT-SCC-24A. Described as above. As for the experimental part:
as §1

Test [3] has as its system BT-474. The experiment in a line: drug sensitivity score (DSS), cytotoxicity CellTox Green; higher = more cytotoxic; extreme values may be limits of the assay. Here is the method: as §1
For test [4], the system named is UT-SCC-24A. The description is as above. Here is the method:
as §1

Test [5] relates to MDA-MB-231. Described as above.
In test [6] the test system is MDA-MB-231. In words: drug sensitivity score (DSS), cell viability CellTiter-Glo; higher = more sensitive; extreme values may be limits of the assay.

For `CCC1=C[C@@H]2CN(C1)Cc1c([nH]c3ccccc13)[C@@](C(=O)OC)(c1cc3c(cc1OC)N(C)[C@H]1[C@@](O)(C(=O)OC)[C@H](OC(C)=O)[C@]4(CC)C=CCN5CC[C@]31[C@@H]54)C2` [Vinorelbine], the drug sensitivity score in test [1] (shRNA: shPPFIA1_1) turned out to be 9.2 DSS; in test [1] (shRNA: shPPFIA1_2), 10 DSS; in test [1] (shRNA: shScramble), 18.7 DSS; in test [2] (shRNA: shPPFIA1_1), 12 DSS; in test [2] (shRNA: shPPFIA1_2) it was 18 DSS; in test [2] (shRNA: shScramble), 15.3 DSS. Further, the drug sensitivity score in test [3] (shRNA: shPPFIA1_1) worked out at 11.1 DSS; in test [3] (shRNA: shPPFIA1_2) it was 13.2 DSS; in test [3] (shRNA: shScramble), 13.8 DSS; in test [4] (shRNA: shPPFIA1_1), 8.4 DSS; in test [4] (shRNA: shPPFIA1_2), 8.4 DSS; in test [4] (shRNA: shScramble), 13.1 DSS. In addition, the drug sensitivity score came out at 7.2 DSS in test [5] (shRNA: shPPFIA1_1), 2.7 DSS in test [5] (shRNA: shScramble), 0 DSS in test [6] (shRNA: shPPFIA1_1) and 19.9 DSS in test [6] (shRNA: shScramble).

In the case of `O=C(Nc1ccc2[nH]nc(-c3ccncc3)c2c1)[C@@H]1CCN(CC(=O)N2CCN(c3ccc(-c4ncccn4)cc3)CC2)C1`, the drug sensitivity score in test [1] (shRNA: shPPFIA1_1) stood at 0 DSS; in test [1] (shRNA: shPPFIA1_2), 0 DSS; in test [1] (shRNA: shScramble) it was 0 DSS; in test [2] (shRNA: shPPFIA1_1) it was 21.3 DSS; in test [2] (shRNA: shPPFIA1_2) it was 20.5 DSS; in test [2] (shRNA: shScramble), 17.3 DSS. Besides, the drug sensitivity score in test [3] (shRNA: shPPFIA1_1) came to 0 DSS; in test [3] (shRNA: shPPFIA1_2) it was 0.2 DSS; in test [3] (shRNA: shScramble), 0 DSS; in test [4] (shRNA: shPPFIA1_1) it was 21.7 DSS; in test [4] (shRNA: shPPFIA1_2), 21.1 DSS; in test [4] (shRNA: shScramble), 11.6 DSS. For the same compound, the drug sensitivity score in test [5] (shRNA: shPPFIA1_1) was found to be 6 DSS; in test [5] (shRNA: shScramble), 10.9 DSS; in test [6] (shRNA: shPPFIA1_1), 2.1 DSS; in test [6] (shRNA: shScramble), 10.8 DSS.

For `Cn1c(=O)n(-c2ccc(C(C)(C)C#N)cc2)c2c3cc(-c4cnc5ccccc5c4)ccc3ncc21` [Dactolisib], the drug sensitivity score in test [1] (shRNA: shPPFIA1_1) amounted to 7.4 DSS; in test [1] (shRNA: shPPFIA1_2), 7.4 DSS; in test [1] (shRNA: shScramble), 11 DSS; in test [2] (shRNA: shPPFIA1_1), 16.2 DSS; in test [2] (shRNA: shPPFIA1_2), 17 DSS; in test [2] (shRNA: shScramble), 18 DSS. The drug sensitivity score in test [3] (shRNA: shPPFIA1_1) amounted to 0 DSS; in test [3] (shRNA: shPPFIA1_2), 0 DSS; in test [3] (shRNA: shScramble), 0 DSS; in test [4] (shRNA: shPPFIA1_1), 1.3 DSS; in test [4] (shRNA: shPPFIA1_2), 0.5 DSS; in test [4] (shRNA: shScramble) it was 2.3 DSS. Also, the drug sensitivity score was 0 DSS in test [5] (shRNA: shPPFIA1_1), 0 DSS in test [5] (shRNA: shScramble), 0 DSS in test [6] (shRNA: shPPFIA1_1) and 4.2 DSS in test [6] (shRNA: shScramble).

With `CC(=O)NCC(=O)N1[C@@H]2CC[C@H]1c1ccc(Nc3ncc(C(F)(F)F)c(NC4CCC4)n3)cc12`, the drug sensitivity score in test [1] (shRNA: shPPFIA1_1) turned out to be 2.7 DSS; in test [1] (shRNA: shPPFIA1_2) it was 2.8 DSS; in test [1] (shRNA: shScramble), 4.5 DSS; in test [2] (shRNA: shPPFIA1_1) it was 8 DSS; in test [2] (shRNA: shPPFIA1_2) it was 8.7 DSS; in test [2] (shRNA: shScramble), 8.5 DSS. Also, the drug sensitivity score in test [3] (shRNA: shPPFIA1_1) amounted to 3 DSS; in test [3] (shRNA: shPPFIA1_2), 3.7 DSS; in test [3] (shRNA: shScramble), 3.5 DSS; in test [4] (shRNA: shPPFIA1_1) it was 4.1 DSS; in test [4] (shRNA: shPPFIA1_2) it was 3.9 DSS; in test [4] (shRNA: shScramble) it was 4.3 DSS. The drug sensitivity score is 2.8 DSS in test [5] (shRNA: shPPFIA1_1), 0 DSS in test [5] (shRNA: shScramble), 5.5 DSS in test [6] (shRNA: shPPFIA1_1) and 21.7 DSS in test [6] (shRNA: shScramble).

With `C#Cc1cccc(Nc2ncnc3cc(OCCOC)c(OCCOC)cc23)c1` [Erlotinib], the drug sensitivity score in test [1] (shRNA: shPPFIA1_1) was determined as 2.5 DSS; in test [1] (shRNA: shPPFIA1_2) it was 2.9 DSS; in test [1] (shRNA: shScramble) it was 3.9 DSS; in test [2] (shRNA: shPPFIA1_1) it was 20.8 DSS; in test [2] (shRNA: shPPFIA1_2) it was 14 DSS; in test [2] (shRNA: shScramble) it was 11.9 DSS. Further, the drug sensitivity score in test [3] (shRNA: shPPFIA1_1) came out at 0.8 DSS; in test [3] (shRNA: shPPFIA1_2), 1.1 DSS; in test [3] (shRNA: shScramble) it was 1.2 DSS; in test [4] (shRNA: shPPFIA1_1), 17.8 DSS; in test [4] (shRNA: shPPFIA1_2), 11.4 DSS; in test [4] (shRNA: shScramble), 8.3 DSS. The drug sensitivity score is 0 DSS in test [5] (shRNA: shPPFIA1_1), 0 DSS in test [5] (shRNA: shScramble), 2.8 DSS in test [6] (shRNA: shPPFIA1_1) and 4 DSS in test [6] (shRNA: shScramble).

Turning to `CO[C@H]1C[C@@H]2CC[C@@H](C)[C@@](O)(O2)C(=O)C(=O)N2CCCC[C@H]2C(=O)O[C@H]([C@H](C)C[C@@H]2CC[C@@H](OC(=O)C(C)(CO)CO)[C@H](OC)C2)CC(=O)[C@H](C)/C=C(\C)[C@@H](O)[C@@H](OC)C(=O)[C@H](C)C[C@H](C)/C=C/C=C/C=C/1C` [Temsirolimus], the drug sensitivity score is 7.8 DSS in test [1] (shRNA: shPPFIA1_1); 6.2 DSS in test [1] (shRNA: shPPFIA1_2); 9.8 DSS in test [1] (shRNA: shScramble); 2.8 DSS in test [2] (shRNA: shPPFIA1_1); 4.1 DSS in test [2] (shRNA: shPPFIA1_2); 4.4 DSS in test [2] (shRNA: shScramble). In addition, the drug sensitivity score in test [3] (shRNA: shPPFIA1_1), in test [3] (shRNA: shPPFIA1_2), in test [3] (shRNA: shScramble), in test [4] (shRNA: shPPFIA1_1), in test [4] (shRNA: shPPFIA1_2) and in test [4] (shRNA: shScramble) was 0 DSS throughout. The drug sensitivity score in test [5] (shRNA: shPPFIA1_1) was found to be 0 DSS; in test [5] (shRNA: shScramble), 0 DSS; in test [6] (shRNA: shPPFIA1_1) it was 0 DSS; in test [6] (shRNA: shScramble), 7.9 DSS.
